Several values for one entry are separate records, joined by “and”; a condition that tells them apart may be missing. Equal values may be shown once. Entries after “also recorded” stand apart in the source; their conditions may differ.
What was measured:
[1] = typical; (94 ng·mL^−1); cited from earlier work
[2] = test system: middle cerebral artery occlusion (MCAO) in rats; test: Forelimb placing test after MCAO; format: in vivo, Sprague Dawley rats; set-up: Forelimb Placing Total Score, Mean: scale not given here; conditions: for Forelimb Placing Total Score, Mean: group mean N=15; for Forelimb Placing Total Score: individual animals, 0=normal, 12=maximally impaired
Experimental: (§1) 4-AP was evaluated for its ability to promote functional sensorimotor improvement following ischemic stroke in rats with stable motor deficits at times remote from their ischemic events. The animal model mimics the conditions in human ischemic stroke and is produced by middle cerebral artery occlusion (MCAO), which results in extensive infarction in cerebral cortex and striatum, including the cortical spinal tract (white matter). In particular, the MCAO model in Sprague Dawley rats that was utilized in the experiments presented below mimics the conditions in human ischemic stroke. In this experiment, Sprague Dawley rats were anesthetized, subjected to a surgery resulting in middle cerebral artery occlusion (MCAO), treated with and without 4-aminopyridine and behavioral assessments were performed as described below. Surgical Procedure: A small focal stroke (infarct) was made on the right side of the surface of the brain (cerebral cortex) by middle cerebral artery occlusion (MCAO). The right side of the head was shaved with electric clippers (patch of approx 3×5 cm between eye and ear). The region was carefully cleaned with septisol. Using aseptic technique, an incision was made midway between the eye and eardrum canal. The temporalis muscle was isolated, bisected, and reflected. A small window of bone was removed via drill and rongeurs (subtemporal craniectomy) to expose the middle cerebral artery (MCA). Care was taken not to remove the zygomatic arch or to transect the facial nerve that would impair the ability of the animal to chew after surgery. […] The MCA was then transected. The temporalis muscle was then repositioned, and the incision was closed subcutaneously with sutures. The skin incision was closed with surgical staples (2-3 required). Throughout the procedure, body temperature was maintained at 37.0°±1° C., using a self-regulating heating pad connected to a rectal thermometer. Dosing: Rats were treated in accordance with the dosing schedule shown in Tables 1A, 1B, and FIG. 2, with each Phase being a two week period of time. A solution of 4-AP was used in this experiment. Dosing was started at 4 weeks after ischemic event. Treatment groups: Dosing was started 4 weeks after pMCAO surgery. During these 4 weeks, weekly behavioral assessments, as defined below, were performed. Two dose levels of 4-AP plus vehicle control were assessed, with treatment starting at 4 weeks after ischemic event. All dosing was via gastric gavage, volume not to exceed 2 mL/kg. Animals were given the first dose and behavioral assessments were performed starting 60 minutes after dosing. Animals then received the second dose that day at the appropriate time and b.i.d (preferably every 12 hours) thereafter for 2 more days (3 total days of dosing, 5 total doses). One hour after the 5th dose, animals were subjected to behavioral assessments as defined below. Following the final behavioral assessment, drug was withdrawn for 10 or 11 days, behavior was re-assessed, and then animals were re-challenged with a cross-over treatment (Phase II of Table 1B) as described in Tables 1A, 1B, followed by the same behavioral testing and dosing regimen. This cross-over was repeated one more time as well (Phase III of Table 1B) (see FIG. 2). Behavioral test details: Behavioral evaluations were done by investigators blinded to treatment assignment. As described above, behavioral assessments were timed exactly with dosing times. Animals were given the first dose, behavioral assessments were performed starting 60 minutes later, and blood was collected 90 minutes after dosing. Animals then received the second dose that day at the appropriate time and b.i.d (preferably every 12 hours) thereafter for 2 more days (3 total days of dosing, 5 total doses). One hour after the 5th dose, animals were subjected to behavioral testing. […]

[3] = Body weight of animals after MCAO; format: in vivo, Sprague Dawley rats
Experimental: Animals: 45 male Sprague Dawley Rats, 300-400 g (obtained from Charles River Laboratories, which arrived 7-10 days before surgery at 250-275 g) were used.
Treatment groups: Dosing was started 4 weeks after pMCAO surgery. During these 4 weeks, weekly behavioral assessments, as defined below, were performed. Two dose levels of 4-AP plus vehicle control were assessed, with treatment starting at 4 weeks after ischemic event. All dosing was via gastric gavage, volume not to exceed 2 mL/kg. Animals were given the first dose and behavioral assessments were performed starting 60 minutes after dosing. Animals then received the second dose that day at the appropriate time and b.i.d (preferably every 12 hours) thereafter for 2 more days (3 total days of dosing, 5 total doses). One hour after the 5th dose, animals were subjected to behavioral assessments as defined below. Following the final behavioral assessment, drug was withdrawn for 10 or 11 days, behavior was re-assessed, and then animals were re-challenged with a cross-over treatment (Phase II of Table 1B) as described in Tables 1A, 1B, followed by the same behavioral testing and dosing regimen. This cross-over was repeated one more time as well (Phase III of Table 1B) (see FIG. 2).

[4] = test system: patients with multiple sclerosis; conditions: p<0.05; cited from earlier work
[5] = test system: middle cerebral artery occlusion (MCAO) in rats; test: Hindlimb placing test after MCAO; format: in vivo, Sprague Dawley rats; set-up: Hindlimb Placing Total Score, Mean: scale not given here
Experimental: as §1

## Nc1ccncc1 [4-AP, 4-aminopyridine]
[1]
  plasma concentrations obtained in clinical studies: < 1 µM
[2]; Group I, Phase 1, D30, High 4-AP 2.0 mg/kg b.i.d. p.o., after first dose
  Forelimb Placing Total Score, Mean: 3.37
[2]; Group I, Phase 1, D32, High 4-AP 2.0 mg/kg b.i.d. p.o., after 5th dose
  Forelimb Placing Total Score, Mean: 2.43
[2]; Group I, Phase 2, D44, Low 4-AP 0.63 mg/kg b.i.d. p.o., after first dose
  Forelimb Placing Total Score, Mean: 2.37
[2]; Group I, Phase 2, D46, Low 4-AP 0.63 mg/kg b.i.d. p.o., after 5th dose
  Forelimb Placing Total Score, Mean: 2.03
[2]; Group II, Phase 1, D30, Low 4-AP 0.63 mg/kg b.i.d. p.o., after first dose
  Forelimb Placing Total Score, Mean: 4.20
[2]; Group II, Phase 1, D32, Low 4-AP 0.63 mg/kg b.i.d. p.o., after 5th dose
  Forelimb Placing Total Score, Mean: 3.43
[2]; Group II, Phase 3, D58, High 4-AP 2.0 mg/kg b.i.d. p.o., after first dose
  Forelimb Placing Total Score, Mean: 1.90
[2]; Group II, Phase 3, D60, High 4-AP 2.0 mg/kg b.i.d. p.o., after 5th dose
  Forelimb Placing Total Score, Mean: 1.17
[2]; Group III, Phase 2, D44, High 4-AP 2.0 mg/kg b.i.d. p.o., after first dose
  Forelimb Placing Total Score, Mean: 2.67
[2]; Group III, Phase 2, D46, High 4-AP 2.0 mg/kg b.i.d. p.o., after 5th dose
  Forelimb Placing Total Score, Mean: 1.33
[2]; Group III, Phase 3, D58, Low 4-AP 0.63 mg/kg b.i.d. p.o., after first dose
  Forelimb Placing Total Score, Mean: 2.00
[2]; Group III, Phase 3, D60, Low 4-AP 0.63 mg/kg b.i.d. p.o., after 5th dose
  Forelimb Placing Total Score, Mean: 1.80
[2]; Group I, Phase 1, D30 post-MCAO, High 4-AP 2.0 mg/kg b.i.d. p.o., 60 min after first dose
  Forelimb Placing Total Score: 4.50 (4×) and 3.50 (4×) and 4.00 and 5.50 and 3.00 (2×) and 0.50 and 1.00 and 1.50
[2]; Group I, Phase 1, D32, High 4-AP 2.0 mg/kg b.i.d. p.o., 1 h after 5th dose
  Forelimb Placing Total Score: 3.00 (4×) and 2.00 (3×) and 3.50 (3×) and 2.50 and 0.50 (3×) and 4.00
[2]; Group I, Phase 2, D44, Low 4-AP 0.63 mg/kg b.i.d. p.o., 60 min after first dose
  Forelimb Placing Total Score: 3.50 (2×) and 1.50 (2×) and 4.00 (4×) and 3.00 (2×) and 2.00 and 0.00 (2×) and 0.50 and 1.00
[2]; Group I, Phase 2, D46, Low 4-AP 0.63 mg/kg b.i.d. p.o., 1 h after 5th dose
  Forelimb Placing Total Score: 3.50 (2×) and 1.50 (3×) and 3.00 (3×) and 4.00 and 2.50 (2×) and 0.00 (3×) and 1.00
[2]; Group II, Phase 1, D30, Low 4-AP 0.63 mg/kg b.i.d. p.o., 60 min after first dose
  Forelimb Placing Total Score: 5.50 (3×) and 4.00 (2×) and 3.50 and 5.00 and 4.50 and 1.50 (2×)
[2]; Group II, Phase 1, D32, Low 4-AP 0.63 mg/kg b.i.d. p.o., 1 h after 5th dose
  Forelimb Placing Total Score: 5.50 and 2.00 (2×) and 4.00 and 5.00 and 3.50 and 4.50 and 1.00 (2×) and 3.00
[2]; Group II, Phase 3, D58, High 4-AP 2.0 mg/kg b.i.d. p.o., 60 min after first dose
  Forelimb Placing Total Score: 2.50 (2×) and 0.00 (3×) and 1.50 (2×) and 3.00 and 5.00 and 2.00
[2]; Group II, Phase 3, D60, High 4-AP 2.0 mg/kg b.i.d. p.o., 1 h after 5th dose
  Forelimb Placing Total Score: 1.00 (4×) and 0.00 (4×) and 1.50 and 3.50
[2]; low or high dose, 4 weeks post ischemic brain injury, rats, dose-responsive, reversible
  effect on forelimb function (forelimb placing test): effective to improve forelimb function; also recorded: significant improvement
[3]; Group I, D30, first dosing phase (high dose, inferred)
  Weight (g), Mean: 453.1 g
[3]; Group I, D32, first dosing phase (high dose, inferred)
  Weight (g), Mean: 436.3 g
[3]; Group I, D44, second dosing phase (low dose, inferred)
  Weight (g), Mean: 476.2 g
[3]; Group I, D46, second dosing phase (low dose, inferred)
  Weight (g), Mean: 471.1 g
[3]; Group II, D30, first dosing phase (low dose, inferred)
  Weight (g), Mean: 446.0 g
[3]; Group II, D32, first dosing phase (low dose, inferred)
  Weight (g), Mean: 438.1 g
[3]; Group II, D58, third dosing phase (high dose, inferred)
  Weight (g), Mean: 500.9 g
[3]; Group II, D60, third dosing phase (high dose, inferred)
  Weight (g), Mean: 483.0 g
[3]; Group III, D44, second dosing phase (high dose, inferred)
  Weight (g), Mean: 471.9 g
[3]; Group III, D46, second dosing phase (high dose, inferred)
  Weight (g), Mean: 451.0 g
[3]; Group III, D58, third dosing phase (low dose, inferred)
  Weight (g), Mean: 494.9 g
[3]; Group III, D60, third dosing phase (low dose, inferred)
  Weight (g), Mean: 485.1 g
[4]
  leg strength (LEMMT) relative to placebo: statistically significantly improved
[5]; Group II, D30, individual animals
  Hindlimb Placing Total Score: 2.50 and 1.50 (4×) and 2.00 (3×) and 1.00 and 0.50
[5]; Group II, D30, mean of N 15
  Hindlimb Placing Total Score, Mean: 1.73
[5]; Group II, D32, individual animals
  Hindlimb Placing Total Score: 2.00 and 1.00 (3×) and 1.50 (5×) and 0.50
[5]; Group II, D32, mean of N 15
  Hindlimb Placing Total Score, Mean: 1.37
[5]; Group II, D58, individual animals
  Hindlimb Placing Total Score: 2.00 and 0.00 (4×) and 1.00 and 1.50 (3×) and 0.50
[5]; Group II, D58, mean of N 15
  Hindlimb Placing Total Score, Mean: 0.83
[5]; Group II, D60, individual animals
  Hindlimb Placing Total Score: 0.50 (3×) and 0.00 (6×) and 1.00
[5]; Group II, D60, mean of N 15
  Hindlimb Placing Total Score, Mean: 0.23
[5]; Group III, D44, high dose phase (inferred), mean of N 15
  Hindlimb Placing Total Score, Mean: 0.90
[5]; Group III, D46, high dose phase (inferred), mean of N 15
  Hindlimb Placing Total Score, Mean: 0.30
[5]; Group III, D58, low dose phase (inferred), mean of N 15
  Hindlimb Placing Total Score, Mean: 0.80
[5]; Group III, D60, low dose phase (inferred), mean of N 15
  Hindlimb Placing Total Score, Mean: 0.70
[5]; group mean N=15, Group I, Phase 1, D30, High 4-AP 2.0 mg/kg b.i.d. p.o., after first dose
  Hindlimb Placing Total Score, Mean: 1.67
[5]; group mean N=15, Group I, Phase 1, D32, High 4-AP 2.0 mg/kg b.i.d. p.o., after 5th dose
  Hindlimb Placing Total Score, Mean: 0.97
[5]; group mean N=15, Group I, Phase 2, D44, Low 4-AP 0.63 mg/kg b.i.d. p.o., after first dose
  Hindlimb Placing Total Score, Mean: 1.33
[5]; group mean N=15, Group I, Phase 2, D46, Low 4-AP 0.63 mg/kg b.i.d. p.o., after 5th dose
  Hindlimb Placing Total Score, Mean: 1.13
[5]; individual animals, Group I, Phase 1, D30, High 4-AP 2.0 mg/kg b.i.d. p.o., 60 min after first dose, 0=normal, 6=maximally impaired
  Hindlimb Placing Total Score: 1.50 (7×) and 3.00 (2×) and 2.50 (2×) and 2.00 and 1.00 and 0.00 and 0.50
[5]; individual animals, Group I, Phase 1, D32, High 4-AP 2.0 mg/kg b.i.d. p.o., 1 h after 5th dose, 0=normal, 6=maximally impaired
  Hindlimb Placing Total Score: 1.00 and 3.00 and 1.50 (6×) and 0.00 (4×) and 0.50 (3×)
[5]; individual animals, Group I, Phase 2, D44, Low 4-AP 0.63 mg/kg b.i.d. p.o., 60 min after first dose, 0=normal, 6=maximally impaired
  Hindlimb Placing Total Score: 2.00 (4×) and 3.00 and 1.50 (3×) and 0.50 (2×) and 0.00 (3×) and 2.50 and 1.00
[5]; individual animals, Group I, Phase 2, D46, Low 4-AP 0.63 mg/kg b.i.d. p.o., 1 h after 5th dose, 0=normal, 6=maximally impaired
  Hindlimb Placing Total Score: 2.00 (3×) and 3.00 and 1.50 (4×) and 0.00 (4×) and 0.50 (2×) and 1.00
[5]; low or high dose, 4 weeks post ischemic brain injury, rats, dose responsive, reversible
  effect on hindlimb function (hindlimb placing test): effective to improve hindlimb function; also recorded: significant improvement
